Data taken from patent publication US8895717B2, “Delivery of siRNA by neutral lipid compositions” (The Board of Regents of the University of Texas System, priority 2005, dated 2014).
d = 2'-deoxy (DNA); r = 2'-OH (RNA)

Test system: FAK
Assay: In vivo down regulation of FAK by siRNA in DOPC (Western blot, IHC)
Parameters: species or system human
Conditions: for FAK expression at the conclusion of the therapy studies: HeyA8, IHC
Protocol: siRNA for in vivo delivery was incorporated into the phospholipid 1,2-dioleoyl-sn-glycero-3-phosphatidylcholine (DOPC). DOPC and siRNA were mixed in the presence of excess tertiary-butanol at a ratio of […], as previously described (Landen et al., 2005). Tween-20 was added to the mixture at a ratio of 1:19. The mixture was vortexed, frozen in an acetone/dry ice bath, and lyophilized. Before in vivo administration, this preparation was hydrated with normal (0.9%) saline at a concentration of 15 μg/ml to achieve the desired dose of 150-200 μl per injection. To estimate the quantity of siRNA not taken up by liposomes free siRNA was separated from liposomes by using filter units with a 30,000 nominal molecular weight limit (Millipore Corp, Billerica, Mass.). The liposomal suspension was added to the filters and centrifuged at 5,000 g for 40 min at room temperature. Fractions were collected, the material trapped in the filter was reconstituted with 0.9% saline, and the amount of siRNA in the collected fraction and eluent were measured by spectrophotometry.
Cells were lysed in modified RIPA buffer (50 mM Tris, 150 mM NaCl, 1% triton, 0.5% deoxycholate plus 25 µg/ml leupeptin, 10 µg/ml aprotinin, 2 mM EDTA, and 1 mM sodium orthovanadate (Sigma Chemical Co, St. Louis, Mo.) as previously described (Sood et al., 2004; Sood et al., 2002). A sample was removed from culture dishes by cell scraping and centrifuged at 12,500 rpm for 30 min. The […] protein concentration of the supernatant was determined using a bicinchoninic acid protein assay reagent kit (Pierce, Rockford, Ill.), and whole cell lysates were analyzed by 7.5% SDS-PAGE. Samples were then transferred to nitrocellulose membrane by semi-dry transfer (BioRad Laboratories, Hercules, Calif.). Membranes were blocked with 5% nonfat milk, and incubated with 0.25 μg/mL anti-FAK antibody (Biosource, International Camarillo, Calif.) for 1 h at room temperature. Antibody was detected with 0.167 μg/mL HRP-conjugated anti-mouse secondary antibody (The Jackson Laboratory, Bar Harbor, Me.) and developed with an enhanced chemiluminescence detection kit (Pierce). Equal loading was confirmed by detection of β-actin (0.1 μg/ml, anti-β-actin antibody, Sigma Chemical). Densitometric analysis was performed using the Scion Imaging software (Scion Corporation, Frederick, Md.).
To evaluate the therapeutic effect of the combination of FAK siRNA and docetaxel in a mouse model, preliminary dose-response studies were performed experiments for FAK siRNA. HeyA8 cells were implanted i.p. and treatment was initiated 21 days following tumor injection when i.p. tumors could be assessed by palpation. Mice were randomly distributed into three groups (n=10 per group) and were treated with a single dose of PBS, control siRNA or FAK siRNA at 150 μg/kg in 200 μl volume. Following treatment, 3 mice were sacrificed at definite time-points (24 h, 48 h, 96 h and 6 days). Fluorescent IHC analysis was performed on any excised peritoneal cavity tumors as described below.
The inventors investigated the inhibition of FAK expression in combination with docetaxel and the in vivo therapeutic potential. Prior to initiating therapy studies, the ability of FAK-targeted siRNA incorporated in DOPC to down-regulate FAK in vivo was assessed. Nude mice bearing intraperitoneal HeyA8 tumors were injected with a single dose of FAK siRNA i.p., and tumors were harvested 1, 2, 4, and 6 days after injection for Western blot analysis and immunohistochemistry for assessing level of FAK expression. […] FAK expression was not affected by control siRNA. Twice weekly administration of siRNA (150 μg/kg) was selected as an exemplary dosing schedule for subsequent therapy experiments.

Row | Substance | FAK expression at the conclusion of the therapy studies | FAK expression (single dose) | reduction in FAK levels (HeyA8 tumors, within 48 hours of a single dose in DOPC, Western blot) [%] | persistence of FAK reduction (single dose in DOPC) | recovery of FAK expression (single treatment in DOPC)
1 | control siRNA: sense r(UUUUCCGAACGUGUCACGU)dTT, antisense r(ACGUGACACGUUCGGAGAA)dTT, no homology with human mRNA; in vivo in DOPC (sense UUUUCCGAACGUGUCACGUTT; antisense ACGUGACACGUUCGGAGAATT; sugars from the 5' end r19 d2, backbone not given here) | not suppressed | not affected | – | – | –
2 | FAK siRNA: sense r(CCACCUGGGCCAGUAUUAU)d(TT), antisense r(AUAAUACUGGCCCAGGUGG)d(TT); for in vivo delivery incorporated into DOPC (sense CCACCUGGGCCAGUAUUAUTT; antisense AUAAUACUGGCCCAGGUGGTT; sugars from the 5' end r19 d2, backbone not given here) | sustained suppression of FAK expression | – | > 80 | at least 4 days | began to return to basal levels by 6 days
